The test system of one assay is SD female rats. The assay is described as follows: Measurement of urethral resistance increasing effect (leak point pressure, oral administration). In kind it is in vivo, rat. Here is the method:
The urethral resistance increasing effect in rat was measured by a modified method of Matsumoto et al. (WO2009/063992) as follows. That is, SD female rats (CLEA Japan, Inc.) were anesthetized with isoflurane (1.0%; Abbott), and the spinal cord was transected at Th8-9 to avoid the voiding reflex. After laparotomy, an intravesical pressure measurement catheter and a saline infusion catheter (PE-100; Clay Adams) were inserted into the bladder. Thereafter, the abdomen of the rat was closed with aronalpha A “Sankyo” (Daiichi Sankyo). The rat with an inserted catheter was placed in a Bollman cage (KN-326 Bollman cage TYPE III; Natsume). The intravesical pressure measurement catheter was connected to a computer via a pressure transducer (DX-100; Nihon Koden), an amplifier (RPM-6008M; Nihon Koden/303638; SAN-EI), and a multi-channel data analyzer (MP150/MP100; Biopack), and changes in the intravesical pressure were recorded on a hard disc at a frequency of 100 samples/sec. The saline infusion catheter was connected to a 50 mL syringe (Terumo) filled with saline colored with Evans Blue (Wako). The saline was infused into the bladder from the 50 mL syringe filled with saline at a rate of 0.1 mL/sec by using an infusion pump (Kds100; KD Scientific). When the saline leaked from the urethral orifice, infusion was discontinued, and the saline in the bladder was released. The maximum pressure observed during infusion of saline into the bladder and leakage thereof was taken as an LPP (Leak point pressure) value. The measurement was repeated until the LPP value was stabilized, and an average of continuous three stable LPP values was taken as the result. In addition, the measurement of drug effect was started 1 hr after the animal was placed in the Bollman cage. The LPP value (Pre value) was measured, a drug was orally administered, and the measurement of LPP value (Post value) was again started 15 min, 30 min, 1 hr, 2 hr and 4 hr after administration. The urethral resistance increasing effect by the drug was shown by the difference between the LPP value (Post value) and LPP value (Pre value). The drug was orally administered at 2.0 mL/kg, using 0.5% methylcellulose as a vehicle. For detection of a significant difference in the urethral resistance increasing effect by the drug as compared to the vehicle, the following method was used. For comparison of 3 or more groups, the Williams' test was used for a parametric test, and the Shirley-Williams' test was used for a non-parametric test. For comparison of 2 groups, the Student's t-test was used for a parametric test, and the […] was used for a non-parametric test.

Assay [1] has as its target T1, human serotonin transporter (Homo sapiens, UniProt P31645).
T1 construct: expressed in transfected cells
Kind of assay: Inhibitory action on human serotonin transporter ([3H]-5-hydroxytryptamine uptake in CHO cells). The class given is cell-based. The note with it: CHO, compound 1 μM; relative to inhibitory activity of 10 μM Paroxetine as 100%; read-out: inhibitory rate (%). A digest of the protocol:
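CHO-K1 cells stably expressing human SERT, plated overnight, took up [3H]-5-HT (diluted to 200 nM before a 1:10 addition) for 20 min in HEPES-buffered saline with glucose and 0.5% BSA; radioactivity counted by scintillation. Compounds at 10 μM or 1 μM, activity expressed relative to 10 μM paroxetine set as 100%.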

The structures appear in SMILES notation. Where a name gives a salt, the structure may show the parent alone.

T1 sequence (P31645 whole entry): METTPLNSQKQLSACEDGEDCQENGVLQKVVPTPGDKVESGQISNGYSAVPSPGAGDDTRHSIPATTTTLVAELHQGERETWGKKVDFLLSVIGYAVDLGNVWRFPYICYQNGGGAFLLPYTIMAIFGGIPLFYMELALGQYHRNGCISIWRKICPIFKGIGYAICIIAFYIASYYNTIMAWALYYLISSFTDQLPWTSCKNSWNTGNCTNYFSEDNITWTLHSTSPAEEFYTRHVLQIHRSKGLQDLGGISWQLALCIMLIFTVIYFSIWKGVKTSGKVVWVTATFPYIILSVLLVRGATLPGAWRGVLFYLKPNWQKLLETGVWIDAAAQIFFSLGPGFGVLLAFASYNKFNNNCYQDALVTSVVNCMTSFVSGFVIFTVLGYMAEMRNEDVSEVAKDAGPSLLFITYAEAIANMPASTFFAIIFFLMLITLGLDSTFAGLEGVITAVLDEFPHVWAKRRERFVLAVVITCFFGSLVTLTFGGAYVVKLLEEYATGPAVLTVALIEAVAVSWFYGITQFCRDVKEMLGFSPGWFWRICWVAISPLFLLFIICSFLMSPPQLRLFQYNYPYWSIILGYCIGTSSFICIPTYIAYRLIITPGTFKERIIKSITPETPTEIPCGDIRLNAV

With `OC[C@H](O)[C@@H]1OCCNC[C@H]1c1ccc(Cl)c(Cl)c1` [Example 45, (1S)-1-[(6R,7R)-6-(3,4-dichlorophenyl)-1,4-oxazepan-7-yl]ethane-1,2-diol monohydrochloride], the “urethral resistance increasing effect (cmH2O)” value turned out to be 6.4 ± 1.3 cmH2O in the assay with SD female rats (0.3 mg/kg oral, 15 min later); 9.3 ± 3.3 cmH2O in the assay with SD female rats (0.3 mg/kg oral, 30 min later); 10.0 ± 2.6 cmH2O in the assay with SD female rats (1.0 mg/kg oral, 15 min later); 13.4 ± 1.2 cmH2O with SD female rats (1.0 mg/kg oral, 30 min later); 16.9 ± 1.4 cmH2O in the assay with SD female rats (3.0 mg/kg oral, 15 min later); 17.5 ± 2.8 cmH2O in the assay on SD female rats (3.0 mg/kg oral, 30 min later). Further, the “urethral resistance increasing effect (cmH2O)” value was found to be 21.0 ± 2.0 cmH2O in the assay with SD female rats (10.0 mg/kg oral, 15 min later) and 22.1 ± 2.0 cmH2O with SD female rats (10.0 mg/kg oral, 30 min later). Moreover, the inhibition at 1 µM in assay [1] amounted to 36%.
For the compound `O=c1[nH]c(-c2cccnc2O[C@@H]2CNCCO[C@H]2c2ccc(Cl)c(F)c2)no1` [Example 556, 3-(2-{[(6R,7S)-7-(4-chloro-3-fluorophenyl)-1,4-oxazepan-6-yl]oxy}pyridin-3-yl)-1,2,4-oxadiazol-5(4H)-one monohydrochloride], the “urethral resistance increasing effect (cmH2O)” value in the assay on SD female rats (3.0 mg/kg oral, 15 min later) worked out at 6.0 ± 2.0 cmH2O; with SD female rats (3.0 mg/kg oral, 30 min later) it was 5.0 ± 2.9 cmH2O; with SD female rats (10.0 mg/kg oral, 15 min later), 13.4 ± 1.7 cmH2O; in the assay with SD female rats (10.0 mg/kg oral, 30 min later), 10.6 ± 1.8 cmH2O; with SD female rats (30.0 mg/kg oral, 15 min later), 17.8 ± 3.4 cmH2O; with SD female rats (30.0 mg/kg oral, 30 min later), 17.5 ± 2.3 cmH2O. Besides, in assay [1], the inhibition at 1 µM was found to be 77%.
In the case of `O=c1[nH]c(-c2ccccc2O[C@@H]2CNCCO[C@H]2c2ccc(Cl)c(F)c2)no1` [Example 577, 3-(2-{[(6R, 7S)-7-(4-chloro-3-fluoro-phenyl)-1,4-oxazepan-6-yl]oxy}phenyl)-1,2,4-oxadiazol-5(4H)-one], the “urethral resistance increasing effect (cmH2O)” value is 14.3 ± 3.0 cmH2O in the assay with SD female rats (3.0 mg/kg oral, 15 min later); 13.1 ± 3.1 cmH2O in the assay with SD female rats (3.0 mg/kg oral, 30 min later); 18.7 ± 1.8 cmH2O in the assay on SD female rats (10.0 mg/kg oral, 15 min later); 15.4 ± 1.5 cmH2O in the assay with SD female rats (10.0 mg/kg oral, 30 min later). Also, the inhibition at 1 µM in assay [1] stood at 53%.
For the compound `O=c1[nH]c(-c2ncccc2O[C@@H]2CNCCO[C@H]2c2ccc(Cl)c(F)c2)no1` [Example 584, 3-(3-{[(6R, 7S)-7-(4-chloro-3-fluorophenyl)-1,4-oxazepan-6-yl]oxy}pyridin-2-yl)-1,2,4-oxadiazol-5(4H)-one], the “urethral resistance increasing effect (cmH2O)” value in the assay with SD female rats (3.0 mg/kg oral, 15 min later) stood at 9.5 ± 3.5 cmH2O; with SD female rats (3.0 mg/kg oral, 30 min later), 7.2 ± 2.6 cmH2O; with SD female rats (10.0 mg/kg oral, 15 min later), 18.4 ± 3.4 cmH2O; with SD female rats (10.0 mg/kg oral, 30 min later), 16.2 ± 3.3 cmH2O. The inhibition at 1 µM in assay [1] turned out to be 41%.

Values taken from patent US20130267494A1, “1,4-OXAZEPANE DERIVATIVES” (priority 2010, published 2013).
